From patent US8481696B2, “Glycosylated glycopeptide antibiotic derivatives” (Shionogi & Co., Ltd., priority 2007, dated 2013)
≈ marks a conversion by molar mass, not a printed value. Where two headings read alike, the source gives them in different places.

Experiments:
E. faecalis SR7914 = assay: In vitro measurement of antibacterial activity (MIC, liquid dilution method); assay type: cell-based; conditions: E. faecalis SR7914, vancomycin-resistant Enterococcus (VRE VanA); cation-adjusted Muller Hinton liquid medium; read-out: MIC (minimum growth inhibition concentration)
Method: (§1) Some of the present compounds were measured for a minimum growth inhibition concentration (MIC) by a small amount of liquid dilution method using a cation-adjusted Muller Hinton liquid medium well-known to a person skilled in the art.

E. faecium SR7940 = assay: as above; assay type: cell-based; conditions: Enterococcus faecium
Method: as §1

[1] = E. faecium SR7940, cation-adjusted Muller Hinton liquid medium, read-out: MIC (minimum growth inhibition concentration)

Row | Compound | MIC (E. faecalis SR7914) [µg/mL] | MIC (E. faecium SR7940; [1]) [µg/mL] | MIC (E. faecium SR7940; SR7940, read-out: MIC (minimum growth inhibition concentration)) [µg/mL]
1 | CN[C@H](CC(C)C)C(=O)NC1C(=O)NC(CC(N)=O)C(=O)N[C@H]2C(=O)NC3C(=O)N[C@H](C(=O)N[C@H](C(=O)O)c4cc(O)cc(O)c4-c4cc3ccc4O)[C@H](O[C@H]3C[C@](C)(N)[C@@H](O)[C@H](C)O3)c3ccc(c(Cl)c3)Oc3cc2cc(c3O[C@@H]2O[C@H](CO)[C@@H](O[C@@H]3O[C@H](CNCCn4ccc(NC(=O)c5ccc(OC(F)(F)F)cc5)nc4=O)[C@H](O)[C@H](O)[C@H]3O)[C@H](O)[C@H]2O)Oc2ccc(cc2Cl)[C@H]1O (stereo partly drawn) [Example 11] | 2 to 4 (≈ 1.03 to 2.07 µM) | 1 to 4 (≈ 0.517 to 2.07 µM) | –
2 | CN[C@H](CC(C)C)C(=O)NC1C(=O)N[C@@H](CC(N)=O)C(=O)N[C@H]2C(=O)N[C@H]3C(=O)N[C@H](C(=O)N[C@@H](C(=O)O)c4cc(O)cc(O)c4-c4cc3ccc4O)[C@H](O[C@H]3C[C@](C)(N)[C@@H](O)[C@H](C)O3)c3ccc(c(Cl)c3)Oc3cc2cc(c3O[C@@H]2O[C@H](CO)[C@@H](O[C@@H]3O[C@H](CNCc4ccc(-c5ccc(Cl)cc5)s4)[C@H](O)[C@H](O)[C@H]3O)[C@H](O)[C@H]2O)Oc2ccc(cc2Cl)[C@H]1O (stereo partly drawn) [Example 13] | 2 to 4 (≈ 1.1 to 2.2 µM) | 1 to 4 (≈ 0.55 to 2.2 µM) | –
3 | CN[C@H](CC(C)C)C(=O)NC1C(=O)N[C@@H](CC(N)=O)C(=O)N[C@H]2C(=O)N[C@H]3C(=O)N[C@H](C(=O)N[C@@H](C(=O)O)c4cc(O)cc(O)c4-c4cc3ccc4O)[C@H](O[C@H]3C[C@](C)(NCc4c[nH]cn4)[C@@H](O)[C@H](C)O3)c3ccc(c(Cl)c3)Oc3cc2cc(c3O[C@@H]2O[C@H](CO)[C@@H](O[C@@H]3O[C@H](CNCc4cccc(NC(=O)c5cccc(OC(F)(F)F)c5)c4)[C@H](O)[C@H](O)[C@H]3O)[C@H](O)[C@H]2O)Oc2ccc(cc2Cl)[C@H]1O (stereo partly drawn) [Example 30] | 2 to 4 (≈ 1.01 to 2.02 µM) | 1 to 4 (≈ 0.504 to 2.02 µM) | –
4 | CN[C@H](CC(C)C)C(=O)NC1C(=O)N[C@@H](CC(N)=O)C(=O)N[C@H]2C(=O)N[C@H]3C(=O)N[C@H](C(=O)N[C@@H](C(=O)O)c4cc(O)cc(O)c4-c4cc3ccc4O)[C@H](O[C@H]3C[C@](C)(NCc4cccnc4)[C@@H](O)[C@H](C)O3)c3ccc(c(Cl)c3)Oc3cc2cc(c3O[C@@H]2O[C@H](CO)[C@@H](O[C@@H]3O[C@H](CNCc4cccc(NC(=O)c5cccc(OC(F)(F)F)c5)c4)[C@H](O)[C@H](O)[C@H]3O)[C@H](O)[C@H]2O)Oc2ccc(cc2Cl)[C@H]1O (stereo partly drawn) [Example 31] | 2 to 4 (≈ 1 to 2.01 µM) | 1 to 4 (≈ 0.501 to 2.01 µM) | –
5 | CN[C@H](CC(C)C)C(=O)NC1C(=O)NC(CC(N)=O)C(=O)N[C@H]2C(=O)NC3C(=O)N[C@H](C(=O)N[C@H](C(=O)O)c4cc(O)cc(O)c4-c4cc3ccc4O)[C@H](OC3C[C@](C)(N)[C@@H](O)[C@H](C)O3)c3ccc(c(Cl)c3)Oc3cc2cc(c3O[C@@H]2O[C@H](CO)[C@@H](O[C@@H]3O[C@H](CNCc4ccc(-c5cccc(F)c5)s4)[C@H](O)[C@H](O)[C@H]3O)[C@H](O)[C@H]2O)Oc2ccc(cc2Cl)[C@H]1O (stereo partly drawn) [Example 43] | 2 to 4 (≈ 1.11 to 2.22 µM) | 1 to 4 (≈ 0.555 to 2.22 µM) | –
6 | CN[C@H](CC(C)C)C(=O)NC1C(=O)NC(CC(N)=O)C(=O)N[C@H]2C(=O)NC3C(=O)N[C@H](C(=O)N[C@H](C(=O)O)c4cc(O)cc(O)c4-c4cc3ccc4O)[C@H](OC3C[C@](C)(N)[C@@H](O)[C@H](C)O3)c3ccc(c(Cl)c3)Oc3cc2cc(c3O[C@@H]2O[C@H](CO)[C@@H](O[C@@H]3O[C@H](CNCc4ccc(-c5ccc(Cl)cc5)nc4)[C@H](O)[C@H](O)[C@H]3O)[C@H](O)[C@H]2O)Oc2ccc(cc2Cl)[C@H]1O (stereo partly drawn) [Example 45] | 2 to 4 (≈ 1.1 to 2.21 µM) | 1 to 4 (≈ 0.552 to 2.21 µM) | –
7 | CN[C@H](CC(C)C)C(=O)NC1C(=O)N[C@@H](CC(N)=O)C(=O)N[C@H]2C(=O)N[C@H]3C(=O)N[C@H](C(=O)N[C@@H](C(=O)O)c4cc(O)cc(O)c4-c4cc3ccc4O)[C@H](OC3C[C@](C)(N)[C@@H](O)[C@H](C)O3)c3ccc(c(Cl)c3)Oc3cc2cc(c3O[C@@H]2O[C@H](CO)[C@@H](O[C@@H]3O[C@H](CNCc4ccc(Oc5ccc(F)cc5)cc4)[C@H](O)[C@H](O)[C@H]3O)[C@H](O)[C@H]2O)Oc2ccc(cc2Cl)[C@H]1O (stereo partly drawn) [Example 50] | 2 to 4 (≈ 1.1 to 2.21 µM) | 1 to 4 (≈ 0.552 to 2.21 µM) | –
8 | CN[C@H](CC(C)C)C(=O)N[C@H]1C(=O)N[C@@H](CC(N)=O)C(=O)N[C@H]2C(=O)N[C@H]3C(=O)N[C@H](C(=O)N[C@@H](C(=O)O)c4cc(O)cc(O)c4-c4cc3ccc4O)[C@H](OC3C[C@](C)(N)[C@@H](O)[C@H](C)O3)c3ccc(c(Cl)c3)Oc3cc2cc(c3O[C@@H]2O[C@H](CO)[C@@H](O[C@@H]3O[C@H](CNCc4ccc(-n5cccc5)cc4)[C@H](O)[C@H](O)[C@H]3O)[C@H](O)[C@H]2O)Oc2ccc(cc2Cl)[C@H]1O (stereo partly drawn) [Example 65] | 2 to 4 (≈ 1.13 to 2.27 µM) | 1 to 4 (≈ 0.566 to 2.27 µM) | –
9 | CN[C@H](CC(C)C)C(=O)N[C@H]1C(=O)N[C@@H](CC(N)=O)C(=O)N[C@H]2C(=O)N[C@H]3C(=O)NC(C(=O)N[C@@H](C(=O)O)c4cc(O)cc(O)c4-c4cc3ccc4O)[C@H](O)c3ccc(c(Cl)c3)Oc3cc2cc(c3OC2O[C@H](CO)[C@@H](O)[C@H](O)[C@H]2OC2C[C@](C)(N)[C@H](O)[C@H](C)O2)Oc2ccc(cc2Cl)[C@H]1O (stereo partly drawn) [vancomycin, reference compound] | – | – | > 64

Further lines, with some results ahead:

Row | MIC (E. faecalis SR7914) [µg/mL] | MIC (E. faecium SR7940; [1]) [µg/mL] | Compound | MIC (E. faecium SR7940; SR7940, read-out: MIC (minimum growth inhibition concentration)) [µg/mL]
10 | 2 to 4 (≈ 1.05 to 2.1 µM) | 1 to 4 (≈ 0.526 to 2.1 µM) | CN[C@H](CC(C)C)C(=O)N[C@H]1C(=O)N[C@@H](CC(N)=O)C(=O)N[C@H]2C(=O)N[C@H]3C(=O)N[C@H](C(=O)N[C@@H](C(=O)O)c4cc(O)cc(O)c4-c4cc3ccc4O)[C@H](OC3C[C@](C)(N)[C@@H](O)[C@H](C)O3)c3ccc(c(Cl)c3)Oc3cc2cc(c3O[C@@H]2O[C@H](CO)[C@@H](O[C@@H]3O[C@H](CNCc4ccc(C(=O)NCc5ccc(Cl)c(Cl)c5)cc4)[C@H](O)[C@H](O)[C@H]3O)[C@H](O)[C@H]2O)Oc2ccc(cc2Cl)[C@H]1O (stereo partly drawn) [Example 69] | –
11 | 2 to 4 (≈ 1.12 to 2.24 µM) | 1 to 4 (≈ 0.559 to 2.24 µM) | CN[C@H](CC(C)C)C(=O)N[C@H]1C(=O)N[C@@H](CC(N)=O)C(=O)N[C@H]2C(=O)N[C@H]3C(=O)N[C@H](C(=O)N[C@@H](C(=O)O)c4cc(O)cc(O)c4-c4cc3ccc4O)[C@H](OC3C[C@](C)(N)[C@@H](O)[C@H](C)O3)c3ccc(c(Cl)c3)Oc3cc2cc(c3O[C@@H]2O[C@H](CO)[C@@H](O[C@@H]3O[C@H](CNCc4ccc(-c5cccs5)s4)[C@H](O)[C@H](O)[C@H]3O)[C@H](O)[C@H]2O)Oc2ccc(cc2Cl)[C@H]1O (stereo partly drawn) [Example 75] | –
12 | 2 to 4 (≈ 1.1 to 2.2 µM) | 1 to 4 (≈ 0.55 to 2.2 µM) | CN[C@H](CC(C)C)C(=O)N[C@H]1C(=O)N[C@@H](CC(N)=O)C(=O)N[C@H]2C(=O)N[C@H]3C(=O)N[C@H](C(=O)N[C@@H](C(=O)O)c4cc(O)cc(O)c4-c4cc3ccc4O)[C@H](O[C@H]3C[C@](C)(N)[C@@H](O)[C@H](C)O3)c3ccc(c(Cl)c3)Oc3cc2cc(c3O[C@@H]2O[C@H](CO)[C@@H](O[C@@H]3O[C@H](CNCc4ccc(-c5cc(F)cc(F)c5)s4)[C@H](O)[C@H](O)[C@H]3O)[C@H](O)[C@H]2O)Oc2ccc(cc2Cl)[C@H]1O [Example 82] | –
13 | 2 to 4 (≈ 1.1 to 2.21 µM) | 1 to 4 (≈ 0.552 to 2.21 µM) | CN[C@H](CC(C)C)C(=O)N[C@H]1C(=O)N[C@@H](CC(N)=O)C(=O)N[C@H]2C(=O)N[C@H]3C(=O)N[C@H](C(=O)N[C@@H](C(=O)O)c4cc(O)cc(O)c4-c4cc3ccc4O)[C@H](O[C@H]3C[C@](C)(N)[C@@H](O)[C@H](C)O3)c3ccc(c(Cl)c3)Oc3cc2cc(c3O[C@@H]2O[C@H](CO)[C@@H](O[C@@H]3O[C@H](CNCc4ccc(-c5ccc(OC)cc5)s4)[C@H](O)[C@H](O)[C@H]3O)[C@H](O)[C@H]2O)Oc2ccc(cc2Cl)[C@H]1O [Example 83] | –
14 | 2 to 4 (≈ 1.1 to 2.21 µM) | 1 to 4 (≈ 0.551 to 2.21 µM) | CN[C@H](CC(C)C)C(=O)NC1C(=O)NC(CC(N)=O)C(=O)N[C@H]2C(=O)NC3C(=O)N[C@H](C(=O)NC(C(=O)O)c4cc(O)cc(O)c4-c4cc3ccc4O)[C@H](O[C@H]3C[C@](C)(N)[C@@H](O)[C@H](C)O3)c3ccc(c(Cl)c3)Oc3cc2cc(c3O[C@@H]2O[C@H](CO)[C@@H](O[C@@H]3O[C@H](CNCc4ccc(-c5ccc(F)c(F)c5)nc4)[C@H](O)[C@H](O)[C@H]3O)[C@H](O)[C@H]2O)Oc2ccc(cc2Cl)[C@H]1O (stereo partly drawn) [Example 88] | –
